According to patent publication EP0947820A2, “Method for sample preparation” (Evotec BioSystems GmbH, priority 1998, dated 1999):

Molecular target: HIV Reverse Transcriptase (HIV-RT) (Human immunodeficiency virus type 1 group M subtype B, UniProt P04585)
Test: primer extension assay using HIV Reverse Transcriptase after dry-storage of the inhibitor, read out by FCS
Assay type: biochemical
Details: stored in a desiccator overnight at room-temperature, reaction 40°C, 2 min
Protocol: The method, according to claim 1 was used for a primer extension assay using HIV Reverse Transcriptase (HIV-RT). Precoating the assay plate: 1 µl aliquots of 0.1% (w/v) aqueous solution of HBC (2-hydroxypropyl-β-cyclodextrin) was pipetted into the wells of a nanotiter plate and subjected to a flow of nitrogen gas until all the solvent (water) was evaporated. […] As a control, a section of the nanotiter plate was not coated with HBC. The plate was subsequently loaded with 1 µl (1 mg/ml) of the HIV Reverse Transcriptase Inhibitor AZT (3'Azido-3'deoxythymidine) contained in 50 mM DMSO/ 10 mM NaCl. The solvent (DMSO/water) evaporated by exposure to a flow of nitrogen gas at room-temperature. As a control, some wells of the nanotiter plate (coated and non-coated) were not charged with AZT. The plates were stored in a desiocator overnight at room-temperature.
The primer extension assay was performed by pipetting 900 nanoliter of a reaction mix containing: 2 pmol TMR-lablled 20 base oligo deoxynucleotide anneald to a 200 base RNA-template (gag region of the HIV genome), 50 mM Tris-HCl pH 8.2, dissolved, 50 mM NaCl, 1 mM of each dNTP. The nanotiter plate was incubated at 40°C for 2 min and the extension reaction stopped by the addition of 100 nanoliter 0.5 M EDTA. The primer extension products were analyzed by FCS.
• 1. […]

Cc1cn([C@H]2C[C@H](N=[N+]=[N-])[C@@H](CO)O2)c(=O)[nH]c1=O [AZT, 3'Azido-3'deoxythymidine]
Primer extension (AZT 1 µl (1 mg/ml) dried in nanotiter plate wells not coated with HBC): only partially inhibited
Primer extension (AZT 1 µl (1 mg/ml) dried in nanotiter plate wells precoated with HBC (1 µl of 0.1% w/v)): inhibited
